This is an account of results in patent US3932374A, “Bleomycinic acid and process for preparing thereof” (Zaidan Hojin Biseibutsu Kagaku Kenkyu Kai, priority 1971, dated 1976).

Where two headings read alike, the source gives them in different places.

Series [1] concerns Mycobacterium 607. To be noted: cup test; standard value; cited from earlier work.
A further series deals with ICR-JCL male mice. To be noted: 10 mice, 10 mg./kg. i.v., 10 days.
Series [2] concerns Mycobacterium 607. Put plainly: cup test, antimicrobial activity to Mycobacterium 607. Format: cell-based. From the text: The endpoint of the hydrolysis reaction can be determined by a reaction in antimicrobial activity of the bleomycin substrate as measured by conventional cup tests using Mycobacterium 607, or by a change in the Rf value during thin layer chromatography.
Another series concerns HeLa (S3 bb cell line). To be noted: third day.
Another series in a line: solubility in solvents. Format: physicochemical.

Source text for HeLa (S3 bb cell line): wherein the inhibitory effect = [formula] Co: relative number of cell on the first day t3 : relative number of cell on the third day after the addition of a bleomycin (3 mcg/ml in final)
C3 : relative number of cell in negative control on the third day
Source text for ICR-JCL male mice: The mice were bred for 5 weeks after the final administration and were then dissected. The right and left lungs were observed by microscopic examination.

Turning to `Cc1c(N)nc([C@H](CC(N)=O)NC[C@H](N)C(N)=O)nc1C(=O)N[C@H](C(=O)N[C@H](C)[C@@H](O)[C@H](C)C(=O)N[C@H](C(=O)NCCc1nc(-c2nc(C(=O)NCCC[S+](C)C)cs2)cs1)[C@@H](C)O)[C@@H](O[C@@H]1O[C@@H](CO)[C@@H](O)[C@H](O)[C@@H]1O[C@H]1O[C@H](CO)[C@@H](O)[C@H](OC(N)=O)[C@@H]1O)c1c[nH]cn1.[Br-]` [bleomycin A2, 3-dimethylsulfopropylamino-bleomycin], the “antimicrobial activity, standard” value with Mycobacterium 607 [1] is given as 1000 μ/mg.

On to `Cc1c(N)nc([C@H](CC(N)=O)NC[C@H](N)C(N)=O)nc1C(=O)N[C@H](C(=O)N[C@H](C)[C@@H](O)[C@H](C)C(=O)N[C@H](C(=O)NCCc1nc(-c2nc(C(=O)NCCCCN=C(N)N)cs2)cs1)[C@@H](C)O)[C@@H](O[C@@H]1O[C@@H](CO)[C@@H](O)[C@H](O)[C@@H]1O[C@H]1O[C@H](CO)[C@@H](O)[C@H](OC(N)=O)[C@@H]1O)c1cnc[nH]1` [bleomycin B2, 4-guanidinobutylamino-bleomycin], for which the “Total, mice with degree of fibrosis ++” value with ICR-JCL male mice (Lung L) is 1; in the series with ICR-JCL male mice (Lung R) it was 0. In addition, the “Total, mice with degree of fibrosis -” value in the series on ICR-JCL male mice (Lung L) worked out at 5; in the series on ICR-JCL male mice (Lung R), 4. Also, the figures for the “Total, mice with degree of fibrosis ±” value in the series on ICR-JCL male mice (Lung L) and in the series on ICR-JCL male mice (Lung R) were 1 and 3, respectively. The “Total, mice with degree of fibrosis ± (third Total column)” value in the series with ICR-JCL male mice (Lung L) and with ICR-JCL male mice (Lung R) was 3 each time. The Inhibitory effect was determined as 8.6 with cell culture of Yoshida (0.625 mcg/ml); 34.0 in the series with cell culture of Yoshida (1.25 mcg/ml); 56.0 in the series on cell culture of Yoshida (2.5 mcg/ml); 74.9 with cell culture of Yoshida (5 mcg/ml); 33 in the series on HeLa (S3 bb cell line) (1.5 mcg/ml.); 64 in the series on HeLa (S3 bb cell line) (3 mcg/ml.). Further, the “antimicrobial activity to Mycobacterium 607” value with Mycobacterium 607 [2] amounted to 3094 μ/mg; in the series on Mycobacterium 607 [2] (listed as bleomycin), 3015 μ/mg.

As to `Cc1c(N)nc(C(CC(N)=O)NCC(N)C(N)=O)nc1C(=O)NC(C(=O)NC(C)C(O)C(C)C(=O)NC(C(=O)NCCc1nc(-c2nc(C(=O)O)cs2)cs1)C(C)O)C(OC1OC(CO)C(O)C(O)C1OC1OC(CO)C(O)C(OC(N)=O)C1O)c1cnc[nH]1` (centres unmarked) [bleomycinic acid], the “antimicrobial activity to Mycobacterium 607” value with Mycobacterium 607 [2] was 159 μ/mg.

Regarding benzylamino-bleomycin, the Inhibitory effect in the series on cell culture of Yoshida (0.625 mcg/ml) was determined as 11.1; in the series on cell culture of Yoshida (1.25 mcg/ml) it was 28.2; with cell culture of Yoshida (2.5 mcg/ml), 55.4; in the series on cell culture of Yoshida (5 mcg/ml), 83.5; in the series with HeLa (S3 bb cell line) (1.5 mcg/ml.), 38; in the series on HeLa (S3 bb cell line) (3 mcg/ml.), 73. In the series with HeLa (S3 bb cell line) (6 mcg/ml.), this compound registered an Inhibitory effect of 92. For the same compound, in the series with Mycobacterium 607 [2], the “antimicrobial activity to Mycobacterium 607” value came to 3250 μ/mg.

hydrochloride of bleomycinic acid: the “solubility in ethanol, ethyl acetate, acetone and ether” value in “solubility in solvents” (ethanol, ethyl acetate, acetone, ether) was “insoluble”. In “solubility in solvents” (methanol, acetic acid, dimethylsulfoxide), the “solubility in methanol, acetic acid, dimethylsulfoxide” value is given as “sparingly soluble”. Also, the solubility in water result in “solubility in solvents” (water) is on record as “soluble”.
